Test results published in ChEMBL document CHEMBL4359851, “Design, synthesis, and biological evaluation of a new class of histone acetyltransferase p300 inhibitors” (Eur J Med Chem, 2019).
Activity calls are given as the source filed them. The rule behind the calls is not given here.

Biological target: T1, Histone acetyltransferase p300 (Homo sapiens, UniProt Q09472)
Experiment: Inhibition of p300 in human U2932 cells assessed as reduction in H3K27 acetylation at 10 uM measured after 4 days in presence of EZH2 inhibitor EPZ6438 by Western blot analysis
Type: cell-based
Conditions: not given

T1 sequence (Q09472 whole entry): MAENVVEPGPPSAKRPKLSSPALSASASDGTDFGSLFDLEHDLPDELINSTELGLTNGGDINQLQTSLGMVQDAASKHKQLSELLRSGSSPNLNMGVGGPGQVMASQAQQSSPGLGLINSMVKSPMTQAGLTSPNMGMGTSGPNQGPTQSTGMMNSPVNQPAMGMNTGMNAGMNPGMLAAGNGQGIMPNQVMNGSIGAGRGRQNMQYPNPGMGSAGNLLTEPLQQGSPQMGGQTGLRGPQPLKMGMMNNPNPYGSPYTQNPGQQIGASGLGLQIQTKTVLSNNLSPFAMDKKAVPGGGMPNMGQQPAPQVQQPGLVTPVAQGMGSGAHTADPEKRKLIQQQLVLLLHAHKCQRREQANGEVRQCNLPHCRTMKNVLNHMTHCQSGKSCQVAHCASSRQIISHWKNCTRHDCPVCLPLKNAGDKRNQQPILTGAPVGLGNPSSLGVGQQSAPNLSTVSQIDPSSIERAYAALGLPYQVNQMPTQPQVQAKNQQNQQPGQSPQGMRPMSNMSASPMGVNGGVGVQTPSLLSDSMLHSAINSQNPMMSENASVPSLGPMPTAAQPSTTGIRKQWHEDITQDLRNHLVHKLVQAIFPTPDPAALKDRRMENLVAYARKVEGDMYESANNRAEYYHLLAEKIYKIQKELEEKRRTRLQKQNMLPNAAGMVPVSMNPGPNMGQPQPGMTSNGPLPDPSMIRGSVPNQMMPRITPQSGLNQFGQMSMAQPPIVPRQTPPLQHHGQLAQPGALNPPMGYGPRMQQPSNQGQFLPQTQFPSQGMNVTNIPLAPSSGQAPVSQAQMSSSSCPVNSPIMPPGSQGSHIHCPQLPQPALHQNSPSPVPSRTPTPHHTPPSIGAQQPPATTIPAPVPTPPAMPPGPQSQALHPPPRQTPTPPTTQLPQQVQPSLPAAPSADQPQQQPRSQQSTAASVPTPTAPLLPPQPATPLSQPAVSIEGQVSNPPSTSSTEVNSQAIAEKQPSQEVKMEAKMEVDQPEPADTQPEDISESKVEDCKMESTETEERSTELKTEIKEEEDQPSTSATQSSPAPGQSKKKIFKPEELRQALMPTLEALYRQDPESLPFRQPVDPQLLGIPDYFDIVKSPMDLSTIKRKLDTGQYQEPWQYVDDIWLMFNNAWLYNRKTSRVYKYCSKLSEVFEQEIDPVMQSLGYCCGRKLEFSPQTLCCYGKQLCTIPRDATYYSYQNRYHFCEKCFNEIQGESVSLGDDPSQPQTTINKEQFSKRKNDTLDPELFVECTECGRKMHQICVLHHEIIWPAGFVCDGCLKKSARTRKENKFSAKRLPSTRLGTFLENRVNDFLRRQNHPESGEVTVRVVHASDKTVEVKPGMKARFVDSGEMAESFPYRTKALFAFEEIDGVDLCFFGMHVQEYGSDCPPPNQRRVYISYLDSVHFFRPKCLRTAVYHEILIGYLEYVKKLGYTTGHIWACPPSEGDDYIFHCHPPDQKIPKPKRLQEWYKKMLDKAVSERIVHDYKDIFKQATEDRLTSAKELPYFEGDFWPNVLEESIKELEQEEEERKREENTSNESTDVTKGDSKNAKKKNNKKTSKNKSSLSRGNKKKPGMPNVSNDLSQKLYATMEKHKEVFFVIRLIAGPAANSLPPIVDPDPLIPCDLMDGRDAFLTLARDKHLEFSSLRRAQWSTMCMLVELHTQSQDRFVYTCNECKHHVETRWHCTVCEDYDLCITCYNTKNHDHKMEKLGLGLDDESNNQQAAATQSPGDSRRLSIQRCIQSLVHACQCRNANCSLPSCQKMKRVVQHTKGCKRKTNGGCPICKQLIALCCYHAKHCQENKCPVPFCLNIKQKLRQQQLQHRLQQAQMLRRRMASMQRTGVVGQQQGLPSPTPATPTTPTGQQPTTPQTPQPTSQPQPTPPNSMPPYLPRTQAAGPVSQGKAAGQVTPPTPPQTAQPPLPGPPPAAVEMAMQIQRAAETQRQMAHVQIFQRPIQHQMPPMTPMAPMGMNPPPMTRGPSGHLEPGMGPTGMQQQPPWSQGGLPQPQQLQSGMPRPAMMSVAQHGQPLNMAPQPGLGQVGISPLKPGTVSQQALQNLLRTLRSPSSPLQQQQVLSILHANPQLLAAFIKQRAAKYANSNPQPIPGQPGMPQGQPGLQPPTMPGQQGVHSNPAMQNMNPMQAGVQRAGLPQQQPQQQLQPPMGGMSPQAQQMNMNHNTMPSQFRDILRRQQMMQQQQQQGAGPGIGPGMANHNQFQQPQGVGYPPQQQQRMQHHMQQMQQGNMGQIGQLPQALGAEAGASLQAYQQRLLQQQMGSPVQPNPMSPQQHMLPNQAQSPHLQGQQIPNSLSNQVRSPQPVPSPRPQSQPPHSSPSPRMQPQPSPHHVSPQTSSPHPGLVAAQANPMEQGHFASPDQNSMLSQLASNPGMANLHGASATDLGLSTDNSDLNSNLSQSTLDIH

| inhibition | Structure (SMILES) |
| --- | --- |
| Active | CC1=NN(c2ccc(C(=O)O)cc2)C(=O)/C1=C\c1ccc(-c2cc(C)c(C)cc2C(F)(F)F)o1 |
| Active | CC1=NN(c2ccc(C(=O)O)cc2)C(=O)/C1=C\c1ccc(-c2cc(C)c(C)cc2[N+](=O)[O-])s1 |

Tested on: not listed separately
Experiment: Reactivity with dithiothretol assessed as addition product with thiol group measured within 1 hr by mass spectrometry
Type: physicochemical
Conditions: not given

| Activity | Structure (SMILES) |
| --- | --- |
| Active | CC1=NN(c2ccc(C(=O)O)cc2)C(=O)/C1=C\c1ccc(-c2cc(C)c(C)cc2[N+](=O)[O-])o1 |

Tested on: MCF7
Experiment: Antiproliferative activity against HER2-negative human MCF7 cells measured after 6 days of incubation by sulforhodamine B assay
Type: functional, cell-based
Conditions: MCF7, 144 h

| IC50 [µM] | Structure (SMILES) |
| --- | --- |
| 10.9 | CC1=NN(c2ccc(C(=O)O)cc2)C(=O)/C1=C\c1ccc(-c2cc(C)c(C)cc2C(F)(F)F)o1 |
| 27.3 | CC1=NN(c2ccc(C(=O)O)cc2)C(=O)/C1=C\c1ccc(-c2cc(C)c(C)cc2[N+](=O)[O-])s1 |
| 26.1 | CC1=NN(c2ccc(C(=O)O)cc2)C(=O)/C1=C\c1ccc(-c2cc(C)c(C)cc2[N+](=O)[O-])o1 |

Tested on: not listed separately
Experiment: Reactivity with glutathione assessed as addition product with thiol group measured within 1 hr by mass spectrometry
Type: physicochemical
Conditions: not given

| Activity | Structure (SMILES) |
| --- | --- |
| Active | CC1=NN(c2ccc(C(=O)O)cc2)C(=O)/C1=C\c1ccc(-c2cc(C)c(C)cc2[N+](=O)[O-])o1 |

Biological target: T1, Histone acetyltransferase p300
Experiment: Inhibition of p300 (unknown origin) using biotinylated histone H3 (1 to 21 residues) as substrate measured after 90 mins in presence of Acetyl CoA by AlphaLISA assay
Conditions: not given

| Structure (SMILES) | IC50 [µM] |
| --- | --- |
| CC1=NN(c2ccc(C(=O)O)cc2)C(=O)/C1=C(/C)c1ccc(-c2cc(C)c(C)cc2[N+](=O)[O-])o1 | 2.07 |
| Cc1cc(-c2ccc(/C=C(\C#N)C(=O)Nc3ccc(C(=O)O)cc3)o2)c([N+](=O)[O-])cc1C | 7.13 |
| CC1=NN(c2cc(F)c(O)c(F)c2)C(=O)/C1=C\c1ccc(-c2ccccc2OC(F)(F)F)o1 | > 10 |
| Cc1cc(C(=O)c2ccc3c(ccn3-c3ccc(C(=O)O)cc3)c2)c([N+](=O)[O-])cc1C | > 10 |

Results, then the molecule that gave them:

| IC50 [µM] | Structure (SMILES) |
| --- | --- |
| 0.2 | Cc1cc(-c2ccc(/C=C3\C(=O)N(c4ccc(C(=O)O)cc4)N=C3C3CC3)o2)c([N+](=O)[O-])cc1C |
| 0.29 | CC1=NN(c2ccc(C(=O)O)cc2)C(=O)/C1=C\c1ccc(-c2cc(C)c(C)cc2C(F)(F)F)o1 |
| 0.23 | CC1=NN(c2ccc(C(=O)O)cc2)C(=O)/C1=C\c1ccc(-c2cc(C)c(C)cc2[N+](=O)[O-])s1 |

Tested on: T47D
Experiment: Antiproliferative activity against HER2-negative human T47D cells measured after 6 days of incubation by sulforhodamine B assay
Type: functional, cell-based
Conditions: 144 h

| IC50 [µM] | Structure (SMILES) |
| --- | --- |
| 6.19 | CC1=NN(c2ccc(C(=O)O)cc2)C(=O)/C1=C\c1ccc(-c2cc(C)c(C)cc2C(F)(F)F)o1 |
| 8.92 | CC1=NN(c2ccc(C(=O)O)cc2)C(=O)/C1=C\c1ccc(-c2cc(C)c(C)cc2[N+](=O)[O-])s1 |
| 7.8 | CC1=NN(c2ccc(C(=O)O)cc2)C(=O)/C1=C\c1ccc(-c2cc(C)c(C)cc2[N+](=O)[O-])o1 |
